Data on three molecules can be found in patent US8722849B2, “Polypeptides” (Novo Nordisk A/S, priority 2011, dated 2014).

Converted amounts (≈) assume the structure as drawn. Read-outs that look alike come from different tables or passages of the source. Starred links: 1 amine or outer side, 2 acyl side, 3 side chain; linkers in the order of their positions; H or OH if unused. Positions of bridges follow the written chain, without caps; N, C: chain ends. Residues, ends and D or L forms follow the SMILES beside them. Groups on a side chain read outwards from the residue. *: point of attachment. C20 diacid = O=C(O)CCCCCCCCCCCCCCCCCCC(=O)*; C18 diacid = O=C(O)CCCCCCCCCCCCCCCCC(=O)*; γGlu = O=C(O)[C@H](CCC(=O)[*:2])N[*:1]; AEEA = NCCOCCOCC(=O)O

Data set [1] addresses T1, human amylin receptor (amylin 3(a) receptor: human calcitonin receptor + RAMP-3) (Homo sapiens, UniProt O60896+P30988).
T1 construct: expressed in transfected cells; host or cells: BHK570
T1 sequence (P30988 25-474): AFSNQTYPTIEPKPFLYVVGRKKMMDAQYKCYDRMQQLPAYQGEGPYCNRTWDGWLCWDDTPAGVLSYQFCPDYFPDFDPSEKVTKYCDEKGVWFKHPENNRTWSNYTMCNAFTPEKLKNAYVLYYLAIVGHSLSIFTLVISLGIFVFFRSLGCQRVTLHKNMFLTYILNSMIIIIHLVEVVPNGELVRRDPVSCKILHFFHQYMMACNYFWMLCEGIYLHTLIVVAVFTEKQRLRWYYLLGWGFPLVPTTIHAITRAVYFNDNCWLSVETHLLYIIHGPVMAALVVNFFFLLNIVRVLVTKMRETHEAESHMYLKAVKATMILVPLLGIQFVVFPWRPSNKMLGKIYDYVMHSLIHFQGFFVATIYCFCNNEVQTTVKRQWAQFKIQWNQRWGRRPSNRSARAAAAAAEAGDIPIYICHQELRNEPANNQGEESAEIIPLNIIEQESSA
T1 sequence (O60896 24-148 partner): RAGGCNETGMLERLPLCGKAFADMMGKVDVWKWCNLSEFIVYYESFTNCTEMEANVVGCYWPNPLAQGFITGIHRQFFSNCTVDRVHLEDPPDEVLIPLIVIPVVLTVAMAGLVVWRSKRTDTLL
Put plainly: Assay (II)a functional CRE-luciferase assay, human amylin receptor. The settings on record: Table 2; BHK amylin 3(a)-receptor/CRE-luc cells. In kind it is cell-based.

Data set [2] in a line: Assay (III) ThT fibrillation assay for physical stability. In kind it is physicochemical. The gist of the method:
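Freshly prepared formulations, pH-adjusted, with 1 μM ThT; four or eight replicates incubated at 37 °C under 960 rpm orbital shaking. Fluorescence (ex 444/em 485 nm) read every 20 min; […]. Peptide concentration measured by RP-HPLC before and after the run.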

The nature of data set [3]: Assay (IV) determination of solubility. In kind it is physicochemical. The gist of the method: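 Stock ~500 nmol/ml in water; 1:1 with 100 mM buffer, pH 3.0–8.0 (glycylglycine ≤5.0, bistrispropane ≥6.0); 18 h RT; spin; HPLC quantitation of soluble polypeptide.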
Data set [4] deals with T2, human calcitonin receptor (Homo sapiens, UniProt P30988).
T2 construct: expressed in transfected cells; host or cells: BHK570
T2 sequence (P30988 25-474): T1 sequence (P30988 25-474)
The data set can be described thus: Assay (II)a functional CRE-luciferase assay, human calcitonin receptor. In kind it is cell-based.

The mark [5] stands for this setting: bistrispropane buffer, pH 6, pH 6.0, read-out: Solubility pH 6.0.
[6] abbreviates: bistrispropane buffer, pH 6.5, pH 6.5, read-out: Solubility pH 6.5.
Setting [7] is: bistrispropane buffer, pH 7, pH 7.0, read-out: Solubility pH 7.0.
[8] abbreviates: bistrispropane buffer, pH 7.5, pH 7.5, read-out: Solubility pH 7.5.
Where [9] appears, read: bistrispropane buffer, pH 8, pH 8.0, read-out: Solubility pH 8.0.
The mark [10] stands for this setting: glycylglycine buffer, pH 3, pH 3.0, read-out: Solubility pH 3.0.
The mark [11] stands for this setting: glycylglycine buffer, pH 4, pH 4.0, 18 hours at room temperature, Table 2, read-out: Solubility pH 4.0.
[12] abbreviates: glycylglycine buffer, pH 4, pH 4.0, read-out: Solubility pH 4.0.
The mark [13] stands for this setting: glycylglycine buffer, pH 5, pH 5.0, read-out: Solubility pH 5.0.
The mark [14] stands for this setting: Table 7, human calcitonin (CTa) receptor.
Where [15] appears, read: bistrispropane buffer, pH 7, pH 7.0, 18 hours at room temperature, Table 3, read-out: Solubility pH 7.0.
The mark [16] stands for this setting: bistrispropane buffer, pH 7, pH 7.0, Table 8, read-out: Solubility pH 7.0.
Where [17] appears, read: bistrispropane buffer, pH 7, pH 7.0, Table 9, read-out: Solubility pH 7.0.
[18] abbreviates: bistrispropane buffer, pH 7.5, pH 7.5, Table 9, read-out: Solubility pH 7.5.

On to `CC[C@H](C)[C@H](NC(=O)[C@@H]1CCCN1C(=O)CNC(=O)[C@H](Cc1ccccc1)NC(=O)[C@H](CC(N)=O)NC(=O)[C@H](CC(N)=O)NC(=O)[C@H](CO)NC(=O)[C@H](CO)NC(=O)[C@H](Cc1c[nH]cn1)NC(=O)[C@H](Cc1c[nH]cn1)NC(=O)[C@H](CC(C)C)NC(=O)[C@H](Cc1ccccc1)NC(=O)[C@H](CCC(=O)O)NC(=O)[C@H](C)NC(=O)[C@H](CC(C)C)NC(=O)[C@H](CCCNC(=N)N)NC(=O)[C@H](CCC(N)=O)NC(=O)[C@@H](NC(=O)[C@H](C)NC(=O)[C@@H]1CSSC[C@H](NC(=O)[C@H](CCCCN)NC(=O)CC[C@H](NC(=O)CCCCCCCCCCCCCCCCCCC(=O)O)C(=O)O)C(=O)N[C@@H](CC(N)=O)C(=O)N[C@@H]([C@@H](C)O)C(=O)N[C@@H](C)C(=O)N[C@@H]([C@@H](C)O)C(=O)N1)[C@@H](C)O)C(=O)N[C@@H](CC(C)C)C(=O)N1CCC[C@H]1C(=O)N1CCC[C@H]1C(=O)N[C@H](C(=O)N[C@@H](CC(N)=O)C(=O)N[C@H](C(=O)NCC(=O)N[C@@H](CO)C(=O)N[C@@H](CCCNC(=N)N)C(=O)N[C@H](C(=O)N[C@@H](Cc1ccc(O)cc1)C(N)=O)[C@@H](C)O)C(C)C)[C@@H](C)O` [Example 112, N-alpha-[(S)-4-Carboxy-4-(19-carboxynonadecanoylamino)butyryl]-[Glu14,His17,Arg35]-pramlintide] ({C20 diacid-γGlu}-KCNTATCATQRLAEFLHHSSNNFGPILPPTNVGSRTY-NH2; disulfide 2-7 (inferred); C-terminus assumed), for which the EC50 (as a rule, the concentration that produces a half-maximal response) worked out at 98 pM in data set [1] and 104 pM in data set [4] (setting [14]). Also, the “ThT pH 4.0 lag time” value in data set [2] (ThT fibrillation assay) is above 45 h. The “ThT pH 4.0 lag time (h)” value in data set [2] (ThT fibrillation assay) is above 45 h. Further, the solubility – broadly, the concentration that dissolves in the medium under given conditions – at 18 h in data set [3] (setting [5]) was above 200 µM; in data set [3] (setting [6]), 161 µM (≈ 724 µg/mL); in data set [3] (setting [7]) it was 23 µM (≈ 103 µg/mL); in data set [3] (setting [8]) it was 4 µM (≈ 18 µg/mL); in data set [3] (setting [9]) it was 2 µM (≈ 9 µg/mL); in data set [3] (setting [10]), above 200 µM. The solubility at 18 h in data set [3] (setting [11]), in data set [3] (setting [12]) and in data set [3] (setting [13]) was above 200 µM throughout.
`CC[C@H](C)[C@H](NC(=O)[C@@H]1CCCN1C(=O)CNC(=O)[C@H](Cc1ccccc1)NC(=O)[C@H](CC(N)=O)NC(=O)[C@H](CO)NC(=O)[C@H](CO)NC(=O)[C@H](CO)NC(=O)[C@H](Cc1c[nH]cn1)NC(=O)[C@H](CCCCNC(=O)COCCOCCNC(=O)COCCOCCNC(=O)CC[C@H](NC(=O)CCCCCCCCCCCCCCCCC(=O)O)C(=O)O)NC(=O)[C@H](CC(C)C)NC(=O)[C@H](Cc1ccccc1)NC(=O)[C@H](CCC(=O)O)NC(=O)[C@H](C)NC(=O)[C@H](CC(C)C)NC(=O)[C@H](CCCNC(=N)N)NC(=O)[C@H](CCC(N)=O)NC(=O)[C@@H](NC(=O)[C@H](C)NC(=O)[C@@H]1CSSC[C@H](NC(=O)[C@@H](N)CCCCN)C(=O)N[C@@H](CC(N)=O)C(=O)N[C@@H]([C@@H](C)O)C(=O)N[C@@H](C)C(=O)N[C@@H]([C@@H](C)O)C(=O)N1)[C@@H](C)O)C(=O)N[C@@H](CC(C)C)C(=O)N1CCC[C@H]1C(=O)N1CCC[C@H]1C(=O)N[C@H](C(=O)N[C@@H](CC(N)=O)C(=O)N[C@H](C(=O)NCC(=O)N[C@@H](CO)C(=O)N[C@@H](CCC(=O)O)C(=O)N[C@H](C(=O)N[C@@H](Cc1ccc(O)cc1)C(N)=O)[C@@H](C)O)C(C)C)[C@@H](C)O` [Example 83, N-epsilon17-[2-(2-{2-[2-(2-{2-[(S)-4-Carboxy-4-(17-carboxyheptadecanoylamino)butyrylamino]ethoxy}ethoxy)acetylamino]ethoxy}ethoxy)acetyl]-[Glu14,Lys17,Ser21,Glu35]-pramlintide] (H-KCNTATCATQRLAEFLK([AEEA-AEEA-γGlu-C18 diacid])HSSSNFGPILPPTNVGSETY-NH2; disulfide 2-7 (inferred); N-terminus and C-terminus assumed): the EC50 in data set [1] amounted to 1750 pM; in data set [4] (Table 11, read-out: CTa receptor human EC50), 8430 pM. Further, the “ThT pH 4.0 lag time” value in data set [2] (Table 8), in data set [2] (Table 9) and in data set [2] (ThT fibrillation assay) was above 45 h throughout. Also, in data set [2] (ThT fibrillation assay), the “ThT pH 4.0 lag time (h)” value is recorded as above 45 h. Further, the solubility at 18 h in data set [3] (setting [5]), in data set [3] (setting [6]), in data set [3] (setting [15]), in data set [3] (setting [16]), in data set [3] (setting [17]) and in data set [3] (setting [7]) was above 200 µM throughout. For the same molecule, the solubility at 18 h in data set [3] (setting [18]), in data set [3] (setting [8]), in data set [3] (setting [9]), in data set [3] (setting [10]), in data set [3] (setting [11]) and in data set [3] (setting [12]) was above 200 µM in each case. Further, in data set [3] (setting [13]), the solubility at 18 h was above 200 µM.
Regarding `CC[C@H](C)[C@H](NC(=O)[C@@H]1CCCN1C(=O)CNC(=O)[C@H](Cc1ccccc1)NC(=O)[C@H](CC(N)=O)NC(=O)[C@H](CC(N)=O)NC(=O)[C@H](CO)NC(=O)[C@H](CO)NC(=O)[C@H](Cc1c[nH]cn1)NC(=O)[C@H](CCCNC(=N)N)NC(=O)[C@H](CC(C)C)NC(=O)[C@H](Cc1ccccc1)NC(=O)[C@H](CCC(=O)O)NC(=O)[C@H](C)NC(=O)[C@H](CC(C)C)NC(=O)[C@H](CCCNC(=N)N)NC(=O)[C@H](CCC(N)=O)NC(=O)[C@@H](NC(=O)[C@H](C)NC(=O)[C@@H]1CSSC[C@H](NC(=O)[C@H](CCC(=O)O)NC(=O)[C@H](CCCNC(=N)N)NC(=O)[C@H](CCC(=O)O)NC(=O)CC[C@H](NC(=O)CCCCCCCCCCCCCCCCCCC(=O)O)C(=O)O)C(=O)N[C@@H](CC(N)=O)C(=O)N[C@@H]([C@@H](C)O)C(=O)N[C@@H](C)C(=O)N[C@@H]([C@@H](C)O)C(=O)N1)[C@@H](C)O)C(=O)N[C@@H](CC(C)C)C(=O)N1CCC[C@H]1C(=O)N1CCC[C@H]1C(=O)N[C@H](C(=O)N[C@@H](CC(N)=O)C(=O)N[C@H](C(=O)NCC(=O)N[C@@H](CO)C(=O)N[C@@H](CC(N)=O)C(=O)N[C@H](C(=O)N1CCC[C@H]1C(N)=O)[C@@H](C)O)C(C)C)[C@@H](C)O` [Example 124, N-alpha-[(S)-4-Carboxy-4-(19-carboxynonadecanoylamino)butyryl]-Glu-Arg-[Glu1,Glu14,Arg17,Pro37]-pramlintide] ({C20 diacid-γGlu}-ERECNTATCATQRLAEFLRHSSNNFGPILPPTNVGSNTP-NH2; disulfide 4-9 (inferred)), the concentration giving a half-maximal response (EC50) in data set [1] was determined as 89.5 pM; in data set [4] (setting [14]), 367 pM. The “ThT pH 4.0 lag time” value in data set [2] (Table 8), in data set [2] (Table 9) and in data set [2] (ThT fibrillation assay) was above 45 h in each case. Moreover, the “ThT pH 4.0 lag time (h)” value in data set [2] (ThT fibrillation assay) is above 45 h. Also, the solubility at 18 h in data set [3] (setting [5]), in data set [3] (setting [6]), in data set [3] (setting [15]), in data set [3] (setting [16]), in data set [3] (setting [17]) and in data set [3] (setting [7]) was above 200 µM each time. For the same molecule, the solubility at 18 h in data set [3] (setting [18]), in data set [3] (setting [8]), in data set [3] (setting [9]), in data set [3] (setting [10]), in data set [3] (setting [11]) and in data set [3] (setting [12]) was above 200 µM each time. Also, the solubility at 18 h in data set [3] (setting [13]) is above 200 µM.
